Reference: ChEMBL document CHEMBL1201862, “PubChem BioAssay data set” (2004)
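Test compounds were applied to cells in 96-well plates for 48 hours at 5 doses. At the GI50, growth is halved.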 Activity calls are given as the source filed them. No stated cut-off is given here; in the data, active = GI50 up to about 1.1 µM and inactive = higher.

Key:
Experiment in all cases: NCI-60 cell line screen, 48 h
BT-549 = test system: BT-549
IGROV-1 = test system: IGROV-1
786-0 = test system: 786-0
K562 = test system: K562
NCI-H226 = test system: NCI-H226
MOLT-4 = test system: MOLT-4
SNB-75 = test system: SNB-75
UACC-257 = test system: UACC-257
RPMI-8226 = test system: RPMI-8226
RXF 393 = test system: RXF 393
HCC 2998 = test system: HCC 2998
OVCAR-5 = test system: OVCAR-5
OVCAR-4 = test system: OVCAR-4
NCI-H522 = test system: NCI-H522
Hs-578T = test system: Hs-578T
HCT-116 = test system: HCT-116
OVCAR-8 = test system: OVCAR-8
SK-OV-3 = test system: SK-OV-3
TK-10 = test system: TK-10
EKVX = test system: EKVX

Row | Compound | GI50 (BT-549) | GI50 (IGROV-1) | GI50 (786-0) | GI50 (K562) | GI50 (NCI-H226) | GI50 (MOLT-4) | GI50 (SNB-75) | GI50 (UACC-257) | GI50 (RPMI-8226) | GI50 (RXF 393) | GI50 (HCC 2998) | GI50 (OVCAR-5) | GI50 (OVCAR-4) | GI50 (NCI-H522) | GI50 (Hs-578T) | GI50 (HCT-116) | GI50 (OVCAR-8) | GI50 (SK-OV-3) | GI50 (TK-10) | GI50 (EKVX)
1 | C/C(=C\c1csc(C)n1)[C@@H]1C[C@@H]2O[C@@H]2CCC[C@H](C)[C@H](O)[C@@H](C)C(=O)C(C)(C)[C@@H](O)CC(=O)O1.C/C(=C\c1csc(C)n1)[C@@H]1C[C@@H]2O[C@]2(C)CCC[C@H](C)[C@H](O)[C@@H](C)C(=O)C(C)(C)[C@@H](O)CC(=O)O1 | 56.9 nM (active) | 2.41 nM (active) | 5 nM (active) | 7.87 nM (active) | 45.5 nM (active) | 7.38 nM (active) | 3.84 nM (active) | 145 nM (active) | 9.95 nM (active) | 2.66 nM (active) | 4.03 nM (active) | 108 nM (active) | 1000 nM (active) | 0.76 nM (active) | 3.78 nM (active) | 1.73 nM (active) | 4.8 nM (active) | 9.71 nM (active) | 43.9 nM (active) | 25.2 nM (active)
2 | N#Cc1c(-c2ccc(Cl)cc2)[nH]c(=O)n(C2OC(CO)C(O)C(O)C2O)c1=O (stereo not given) | > 100000 nM (inactive) | 22600 nM (inactive) | > 100000 nM (inactive) | > 100000 nM (inactive) | 46000 nM (inactive) | > 100000 nM (inactive) | 43200 nM (inactive) | > 100000 nM (inactive) | > 100000 nM (inactive) | > 100000 nM (inactive) | > 100000 nM (inactive) | > 100000 nM (inactive) | > 100000 nM (inactive) | > 100000 nM (inactive) | > 100000 nM (inactive) | > 100000 nM (inactive) | > 100000 nM (inactive) | > 100000 nM (inactive) | > 100000 nM (inactive) | 54600 nM (inactive)
3 | CC1=C(N2CC2)C(=O)C(C)=C(N2CC2)C1=O | 417 nM (active) | 215 nM (active) | 70.2 nM (active) | 254 nM (active) | 309 nM (active) | 75.3 nM (active) | 309 nM (active) | 465 nM (active) | 201 nM (active) | 151 nM (active) | 161 nM (active) | 296 nM (active) | 283 nM (active) | 99.8 nM (active) | 933 nM (active) | 206 nM (active) | 188 nM (active) | 310 nM (active) | 289 nM (active) | 697 nM (active)
